Entries after “also recorded” stand apart in the source; their conditions may differ.
Legend:
[1] = system: S. oralis (ATCC 9811) biofilm; assay: Biofilm growth study, S. oralis; format: cell-based, Streptococcus oralis; conditions: 50 mg/mL coated substrate, 24 h time-period
Description: S. oralis and A. actinomycetemcomitans were streaked on a BHI agar plate and incubated at 37° C. and 5% CO2 for 48 h. An isolated colony was inoculated in 5 mL BHI media for 12 h under the same incubation conditions, followed by a 1:10 dilution in BHI media in a 96-well plate containing the substrates of interest. […]
(§1) Following biofilm growth in the 96-well plate, the substrates were aseptically removed from the 96-well plate and placed in a vial containing 5 mL of 1× PBS solution. The vials were sonicated in a water bath for 10 min at 45° C., and the wells that previously contained the substrates were briefly sonicated using a probe sonicator (3 W RMS output) for 10 s per well. 200 μL aliquots of the sonicated PBS solution were placed in a 96-well plate and diluted 1:10 in each subsequent row. 20 μL aliquots of the sonicated media wells were placed in a 96-well plate containing 180 μL of PBS solution and diluted 1:10 in each subsequent row. Each column was then plated at a volume of 10 μL on a BHI agar plate in triplicate. The plates were then incubated at 37° C. and 5% CO2 for 48 h. The CFUs on each plate were counted in order to quantify the amount of biofilm remaining on the surface of the substrate and the bacteria remaining in the media after the removal of the substrate using the following equations: […]

E. coli biofilm = assay: Biofilm growth study, E. coli; format: cell-based, Escherichia coli; conditions: 50 mg/mL coated substrate, 24 h time-period
Description: E. coli biofilms were grown from a 20 h BHI inoculated with an E. coli colony. The liquid culture was diluted 10^3 to a stock solution in BHI, then diluted 1:10 in BHI media in a 96-well plate. The plate was incubated in the dark at 37° C. for 24 h.
as §1

[2] = system: L929 mouse epithelial cells; assay: MTT cytotoxicity of coated substrates (Example 3); format: cell-based; conditions: 0.5 mg/mL and 50 mg/mL coated substrates, cells grown 100 hr, relative to uncoated sample and negative control
Description: In this Example, the cytotoxicity of polymeric substrates coated with 0.5 mg/mL OH-AAZO and 50 mg/mL OH-AAZO in the manner described in Example 1 were tested using L929 mouse epithelial cells. The following six samples were prepared: polymeric substrate coated with 50 mg/mL OH-AAZO, polymeric substrate coated with 0.5 mg/mL OH-AAZO, uncoated polymeric substrate, positive control, negative control, and an empty well. All coatings were spin coated. All samples were run in triplicate.
The cells were grown on substrates for 100 hr with media replacement when necessary. L929 conditions: Passage 3. Initial concentration of cells: 1.67×10^4 cells/mL.
Methods and assumptions: • Wells containing MTT product were analyzed at 570 nm. • OD570 values were corrected based on OD570 values of wells containing MTT product+other reagents only (no cells). • Assumes 100% cell death (i.e., 0% cell viability) in these positive control wells. • Negative control (−) wells contained cells grown with no substrate. • Assumes all cell death occurred naturally.
Cell viability was calculated using the following equation: […]

[3] = system: S. pyogenes (Group A strep, GAS); assay: Growth study, S. pyogenes (Group A strep); format: cell-based, Streptococcus pyogenes; conditions: 50 mg/ML coated substrates, BHI media, 24 h time-period
Description: A single bacterial colony was inoculated in 4 mL BHI media. The colony was grown to mid-log phase (to approximately OD600=0.4), statically at 37° C., which for was approximately 4 hours for the S. agalactiae GBS, approximately 11 hours for the S. pyogenes GAS, and approximately 6 hours for the S. pneumaoniae. They were diluted 1:5 in 80% glycerol (in water) solution (4 parts culture, 1 part glycerol, for a final glycerol concentration of 16%). In a 96-well plate, each was diluted to 1:100 resulting in a final concentration of 1×10^6 CFU/mL and grown at 37° C. with 5% CO2.

S. mutans [4] = assay: DIBAC4(3) membrane potential assay; format: cell-based, Streptococcus mutans
Description: Membrane potential assays were performed as described by Wu et al. with minor modifications. Wu et al., Antibacterial activity and membrane-disruptive mechanism of 3-p-trans-coumaroyl-2-hydroxyquinic acid, a novel phenolic compound from pine needles of Cedrus deodara, against Staphylococcus aureus, Molecules (2016), 21(8):1-12. S. mutans bacteria grown for 24 h in BHI broth were inoculated in a 96-well plate as described above. The plate was incubated for 8 h at 37° C. and 5% CO2. 2 μL of 0.1 mg/mL DIBAC4 (3) solution in DMSO was added to each well. The plate was then incubated in the dark overnight. The fluorescence reading was taken in a plate reader at λexcitation=492 nm and λemission=515 nm. Fluorescence values in bacteria-containing wells were normalized against fluorescence values containing the same substrate but no bacteria.

S. mutans [5] = assay: Kill curve kinetic study of S. mutans in media surrounding the coated substrate; format: cell-based, Streptococcus mutans
Description: FIG. 13 are images from a complete plating of media of S. mutans in contact with OH-AAZO-coated substrates at different timepoints following seeding. The media sampled shown in FIG. 13 (A) at t=0 h was serial diluted as described in Example 4 (below) and gave a total CFU count of (8.0±3.2)×10^6 CFUs. The media sampled shown in FIG. 13 (B) at t=4 h was streaked across the entire plate and gave a total CFU count of 8 CFUs. The media sampled shown in FIG. 13 (C) at t=24 h was streaked across the entire plate and gave a total CFU count of 0 CFUs.
We sampled aliquots of the media containing S. mutans surrounding the OH-AAZO substrate at different time points (FIG. 4). At t=0, S. mutans colonies (1×10^6 CFUs) were introduced to the OH-AAZO coated substrate. At t=4 h, the CFU count in the well was reduced 2-log, and by t=6 h, the CFU count had reduced to zero.

## C=CC(=O)Oc1ccccc1/N=N/c1ccccc1O [OH-AAZO, phenolic acrylated azobenzene]
[1]
  S. oralis growth on coated substrate and in media: did not grow on the coated substrate nor in the media; also recorded: antibacterial effect was only observed
E. coli biofilm
  antibacterial effect on E. coli biofilm (CFUs): no discernable antibacterial effect or reduction in CFUs
[2]
  cytotoxicity (cell viability, MTT): non-cytotoxic; also recorded: does not contribute significantly to cytotoxicity
[3]
  S. pyogenes growth on coated substrate and in media: did not grow on the coated substrate nor in the media
S. mutans [4]; 5 mg/mL coated substrate, relative to uncoated control
  DIBAC4(3) fluorescence of S. mutans: slight reduction
S. mutans [4]; 25 mg/mL coated substrate
  DIBAC4(3) fluorescence of S. mutans: drop in fluorescence to zero
S. mutans [4]; 50 mg/mL coated substrate
  DIBAC4(3) fluorescence of S. mutans: drop in fluorescence to zero; also recorded: dropped to zero
S. mutans [5]; t=0 h, serial diluted
  total CFU count, complete plating of media: (8.0±3.2)×10^6 CFUs
S. mutans [5]; t=4 h, from 1×10^6 CFUs at t=0
  reduction of CFU count in the well: 2 log
S. mutans [5]; t=4 h, streaked across the entire plate
  total CFU count, complete plating of media: 8 CFUs
S. mutans [5]; t=6 h
  S. mutans CFU count in the media: zero and complete S. mutans death and absence of S. mutans
